In patent publication US10351575B2, “Bicyclic urea, thiourea, guanidine and cyanoguanidine compounds useful for the treatment of pain” (Array BioPharma Inc., priority 2012, dated 2019):

Legend:
Experiment in all cases: KinaseProfiler off-target kinase profiling
Assay type in all cases: biochemical
Conditions in all cases: 10 μM, ATP near Km
[1] = molecular target: Fyn (Homo sapiens (Human), UniProt P06241)
Procedure, shortened: (§1)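 Data represent percent of control averaged across duplicates, from a one-concentration (10 μM) test with kinase-specific near-Km ATP.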

[2] = molecular target: SIK (Homo sapiens (Human), UniProt P57059)
Chain of SIK (P57059 whole entry): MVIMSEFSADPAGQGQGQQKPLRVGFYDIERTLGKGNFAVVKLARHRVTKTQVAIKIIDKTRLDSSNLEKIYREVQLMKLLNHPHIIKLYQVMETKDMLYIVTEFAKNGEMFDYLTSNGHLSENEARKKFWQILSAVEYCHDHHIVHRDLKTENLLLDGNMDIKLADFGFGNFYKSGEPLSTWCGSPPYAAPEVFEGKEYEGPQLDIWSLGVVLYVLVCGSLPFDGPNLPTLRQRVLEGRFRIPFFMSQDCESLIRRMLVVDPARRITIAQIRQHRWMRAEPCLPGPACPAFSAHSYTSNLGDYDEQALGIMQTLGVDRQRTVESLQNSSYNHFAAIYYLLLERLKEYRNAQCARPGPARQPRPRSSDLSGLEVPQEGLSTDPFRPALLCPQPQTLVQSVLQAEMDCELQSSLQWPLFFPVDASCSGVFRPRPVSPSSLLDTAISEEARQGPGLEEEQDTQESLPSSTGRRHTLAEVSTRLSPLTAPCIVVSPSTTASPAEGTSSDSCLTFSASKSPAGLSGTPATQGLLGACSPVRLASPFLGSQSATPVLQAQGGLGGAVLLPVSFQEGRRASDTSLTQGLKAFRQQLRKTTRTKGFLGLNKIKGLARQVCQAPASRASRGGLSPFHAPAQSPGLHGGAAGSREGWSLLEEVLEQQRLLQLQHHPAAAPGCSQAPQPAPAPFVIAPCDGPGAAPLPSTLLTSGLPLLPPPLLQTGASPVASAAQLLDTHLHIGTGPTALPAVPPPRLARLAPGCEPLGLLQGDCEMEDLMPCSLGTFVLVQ
Procedure, shortened: as §1

[3] = molecular target: TAO2 (Homo sapiens (Human), UniProt Q9UL54)
Procedure, shortened: as §1

[4] = molecular target: GSK3beta (Homo sapiens (Human), UniProt P49841)
Procedure, shortened: as §1

[5] = molecular target: p70S6K (Homo sapiens (Human), UniProt P23443)
Procedure, shortened: as §1

[6] = molecular target: IKKalpha (Homo sapiens (Human), UniProt O15111)
Procedure, shortened: as §1

[7] = molecular target: EphA4 (Homo sapiens (Human), UniProt P54764)
Procedure, shortened: as §1

[8] = molecular target: ARK5 (Homo sapiens (Human), UniProt O60285)
Procedure, shortened: as §1

[9] = molecular target: MARK2 (Homo sapiens (Human), UniProt Q7KZI7)
Procedure, shortened: as §1

[10] = molecular target: HIPK2 (Homo sapiens (Human), UniProt Q9H2X6)
Procedure, shortened: as §1

[11] = molecular target: CDK2/cyclinE (Homo sapiens (Human), UniProt P24941)
Procedure, shortened: as §1

[12] = molecular target: EphA5 (Homo sapiens (Human), UniProt P54756)
Procedure, shortened: as §1

[13] = molecular target: MLK1 (Homo sapiens (Human), UniProt P80192)
Procedure, shortened: as §1

[14] = molecular target: Pim-2 (Homo sapiens (Human), UniProt Q9P1W9)
Procedure, shortened: as §1

[15] = molecular target: NEK6 (Homo sapiens (Human), UniProt Q9HC98)
Procedure, shortened: as §1

[16] = test system: CK1_y
Procedure, shortened: as §1

[17] = molecular target: GSK3alpha (Homo sapiens (Human), UniProt P49840)
Procedure, shortened: as §1

[18] = molecular target: NLK (Homo sapiens (Human), UniProt Q9UBE8)
Procedure, shortened: as §1

[19] = molecular target: MSK2 (Homo sapiens (Human), UniProt O75676)
Procedure, shortened: as §1

[20] = molecular target: EphA2 (Homo sapiens (Human), UniProt P29317)
Chain of EphA2 (P29317 24-976): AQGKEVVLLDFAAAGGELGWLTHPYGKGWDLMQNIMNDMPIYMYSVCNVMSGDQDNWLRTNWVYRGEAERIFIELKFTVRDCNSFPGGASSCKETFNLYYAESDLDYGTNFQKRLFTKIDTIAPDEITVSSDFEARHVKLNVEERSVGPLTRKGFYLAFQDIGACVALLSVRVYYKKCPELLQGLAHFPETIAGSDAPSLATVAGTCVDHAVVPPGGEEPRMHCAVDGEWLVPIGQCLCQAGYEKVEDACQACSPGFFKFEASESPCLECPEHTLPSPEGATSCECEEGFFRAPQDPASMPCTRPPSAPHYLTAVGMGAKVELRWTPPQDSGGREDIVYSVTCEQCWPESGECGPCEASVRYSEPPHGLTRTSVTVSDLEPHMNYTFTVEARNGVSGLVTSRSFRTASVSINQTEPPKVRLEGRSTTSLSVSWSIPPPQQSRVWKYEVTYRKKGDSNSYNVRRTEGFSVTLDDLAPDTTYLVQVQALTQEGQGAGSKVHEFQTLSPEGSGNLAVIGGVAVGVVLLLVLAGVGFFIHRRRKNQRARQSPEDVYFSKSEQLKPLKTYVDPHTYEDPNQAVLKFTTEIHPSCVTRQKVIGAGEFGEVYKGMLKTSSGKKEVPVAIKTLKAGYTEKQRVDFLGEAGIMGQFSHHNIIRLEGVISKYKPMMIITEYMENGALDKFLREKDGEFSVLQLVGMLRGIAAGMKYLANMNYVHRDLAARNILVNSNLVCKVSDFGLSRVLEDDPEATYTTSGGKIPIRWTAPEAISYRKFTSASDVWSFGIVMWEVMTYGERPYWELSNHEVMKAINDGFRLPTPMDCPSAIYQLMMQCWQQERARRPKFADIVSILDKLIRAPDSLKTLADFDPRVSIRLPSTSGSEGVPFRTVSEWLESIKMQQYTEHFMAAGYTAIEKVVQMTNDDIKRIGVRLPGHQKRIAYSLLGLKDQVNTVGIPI
Procedure, shortened: as §1

[21] = molecular target: NEK11 (Homo sapiens (Human), UniProt Q8NG66)
Procedure, shortened: as §1

[22] = molecular target: MST3 (Homo sapiens (Human), UniProt Q9Y6E0)
Procedure, shortened: as §1

[23] = molecular target: p38gamma (Homo sapiens (Human), UniProt P53778)
Procedure, shortened: as §1

[24] = molecular target: MAPKAP-K3 (Homo sapiens (Human), UniProt Q16644)
Chain of MAPKAP-K3 (Q16644 whole entry): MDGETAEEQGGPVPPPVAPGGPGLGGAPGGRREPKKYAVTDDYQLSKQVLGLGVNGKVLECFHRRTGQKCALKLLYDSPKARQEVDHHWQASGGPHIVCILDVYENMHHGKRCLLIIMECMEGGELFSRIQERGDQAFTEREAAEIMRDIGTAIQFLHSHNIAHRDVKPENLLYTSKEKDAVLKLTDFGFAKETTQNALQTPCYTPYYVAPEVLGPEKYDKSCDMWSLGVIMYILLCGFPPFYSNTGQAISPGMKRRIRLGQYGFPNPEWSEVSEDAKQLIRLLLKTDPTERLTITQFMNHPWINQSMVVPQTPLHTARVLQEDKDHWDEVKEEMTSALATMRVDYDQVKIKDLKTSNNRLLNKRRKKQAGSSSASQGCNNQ
Procedure, shortened: as §1

[25] = molecular target: ITK (Homo sapiens (Human), UniProt Q08881)
Procedure, shortened: as §1

[26] = molecular target: PKD1 (Homo sapiens (Human), UniProt Q15139)
Procedure, shortened: as §1

[27] = molecular target: CDK5/p25 (Homo sapiens (Human), UniProt Q00535)
Procedure, shortened: as §1

[28] = molecular target: TAK1 (Homo sapiens (Human), UniProt O43318)
Procedure, shortened: as §1

[29] = molecular target: ULK2 (Homo sapiens (Human), UniProt Q8IYT8)
Procedure, shortened: as §1

[30] = molecular target: RIPK2 (Homo sapiens (Human), UniProt O43353)
Procedure, shortened: as §1

[31] = molecular target: TLK2 (Homo sapiens (Human), UniProt Q86UE8)
Chain of TLK2 (Q86UE8 whole entry): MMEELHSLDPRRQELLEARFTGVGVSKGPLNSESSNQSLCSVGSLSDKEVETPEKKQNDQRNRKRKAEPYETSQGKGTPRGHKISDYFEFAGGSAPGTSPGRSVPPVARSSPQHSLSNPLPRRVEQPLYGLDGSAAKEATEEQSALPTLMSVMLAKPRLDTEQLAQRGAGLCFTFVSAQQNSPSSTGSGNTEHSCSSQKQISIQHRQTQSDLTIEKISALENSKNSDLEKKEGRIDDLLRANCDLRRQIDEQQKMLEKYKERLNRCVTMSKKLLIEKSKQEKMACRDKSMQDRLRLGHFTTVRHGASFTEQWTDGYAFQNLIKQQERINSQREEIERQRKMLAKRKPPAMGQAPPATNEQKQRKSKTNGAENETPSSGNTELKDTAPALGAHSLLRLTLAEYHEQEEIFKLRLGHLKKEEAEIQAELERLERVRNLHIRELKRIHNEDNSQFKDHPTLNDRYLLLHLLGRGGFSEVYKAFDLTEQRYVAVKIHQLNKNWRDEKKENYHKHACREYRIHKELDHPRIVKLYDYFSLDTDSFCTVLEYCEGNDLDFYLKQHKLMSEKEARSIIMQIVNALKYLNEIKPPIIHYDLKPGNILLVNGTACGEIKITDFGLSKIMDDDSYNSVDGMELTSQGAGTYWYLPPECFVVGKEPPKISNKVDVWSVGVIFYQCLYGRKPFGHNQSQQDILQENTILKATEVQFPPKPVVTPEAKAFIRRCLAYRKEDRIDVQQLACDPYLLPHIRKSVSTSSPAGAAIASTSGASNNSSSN
Procedure, shortened: as §1

[32] = molecular target: CLK3 (Homo sapiens (Human), UniProt P49761)
Procedure, shortened: as §1

[33] = molecular target: MuSK (Homo sapiens (Human), UniProt O15146)
Procedure, shortened: as §1

[34] = molecular target: STK33 (Homo sapiens (Human), UniProt Q9BYT3)
Procedure, shortened: as §1

[35] = molecular target: NEK2 (Homo sapiens (Human), UniProt P51955)
Procedure, shortened: as §1

[36] = molecular target: CAMK2b (Homo sapiens (Human), UniProt Q13554)
Procedure, shortened: as §1

[37] = molecular target: TNK2 (Homo sapiens (Human), UniProt Q07912)
Chain of TNK2 (Q07912 whole entry): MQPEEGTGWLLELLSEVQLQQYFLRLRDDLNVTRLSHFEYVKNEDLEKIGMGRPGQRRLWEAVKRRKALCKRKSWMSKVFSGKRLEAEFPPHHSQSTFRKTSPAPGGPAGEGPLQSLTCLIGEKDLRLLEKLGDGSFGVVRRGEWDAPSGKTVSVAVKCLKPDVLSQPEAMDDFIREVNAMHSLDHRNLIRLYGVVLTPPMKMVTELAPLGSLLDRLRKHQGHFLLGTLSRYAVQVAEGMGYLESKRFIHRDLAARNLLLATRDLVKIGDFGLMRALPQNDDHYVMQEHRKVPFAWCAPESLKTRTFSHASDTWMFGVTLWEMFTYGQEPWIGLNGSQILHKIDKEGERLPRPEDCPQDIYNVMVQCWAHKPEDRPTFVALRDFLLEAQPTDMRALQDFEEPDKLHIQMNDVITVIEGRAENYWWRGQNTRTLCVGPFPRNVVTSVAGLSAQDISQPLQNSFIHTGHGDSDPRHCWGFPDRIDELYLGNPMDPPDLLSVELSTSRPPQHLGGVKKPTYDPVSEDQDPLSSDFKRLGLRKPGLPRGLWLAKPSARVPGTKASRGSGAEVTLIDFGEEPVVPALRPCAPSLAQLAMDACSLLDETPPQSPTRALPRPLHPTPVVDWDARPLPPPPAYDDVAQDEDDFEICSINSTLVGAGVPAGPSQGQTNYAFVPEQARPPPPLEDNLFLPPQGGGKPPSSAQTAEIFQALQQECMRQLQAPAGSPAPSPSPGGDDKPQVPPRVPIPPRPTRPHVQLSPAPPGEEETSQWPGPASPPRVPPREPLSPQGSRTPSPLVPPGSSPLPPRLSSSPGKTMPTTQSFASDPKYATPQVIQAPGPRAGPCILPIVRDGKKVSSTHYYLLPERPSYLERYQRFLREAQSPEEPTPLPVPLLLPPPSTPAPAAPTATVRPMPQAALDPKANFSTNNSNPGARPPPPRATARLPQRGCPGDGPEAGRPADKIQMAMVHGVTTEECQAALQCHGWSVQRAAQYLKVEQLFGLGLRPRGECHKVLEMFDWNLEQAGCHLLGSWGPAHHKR
Procedure, shortened: as §1

[38] = molecular target: MAPKAP-K2 (Homo sapiens (Human), UniProt P49137)
Procedure, shortened: as §1

[39] = molecular target: LOK (Homo sapiens (Human), UniProt O94804)
Chain of LOK (O94804 whole entry): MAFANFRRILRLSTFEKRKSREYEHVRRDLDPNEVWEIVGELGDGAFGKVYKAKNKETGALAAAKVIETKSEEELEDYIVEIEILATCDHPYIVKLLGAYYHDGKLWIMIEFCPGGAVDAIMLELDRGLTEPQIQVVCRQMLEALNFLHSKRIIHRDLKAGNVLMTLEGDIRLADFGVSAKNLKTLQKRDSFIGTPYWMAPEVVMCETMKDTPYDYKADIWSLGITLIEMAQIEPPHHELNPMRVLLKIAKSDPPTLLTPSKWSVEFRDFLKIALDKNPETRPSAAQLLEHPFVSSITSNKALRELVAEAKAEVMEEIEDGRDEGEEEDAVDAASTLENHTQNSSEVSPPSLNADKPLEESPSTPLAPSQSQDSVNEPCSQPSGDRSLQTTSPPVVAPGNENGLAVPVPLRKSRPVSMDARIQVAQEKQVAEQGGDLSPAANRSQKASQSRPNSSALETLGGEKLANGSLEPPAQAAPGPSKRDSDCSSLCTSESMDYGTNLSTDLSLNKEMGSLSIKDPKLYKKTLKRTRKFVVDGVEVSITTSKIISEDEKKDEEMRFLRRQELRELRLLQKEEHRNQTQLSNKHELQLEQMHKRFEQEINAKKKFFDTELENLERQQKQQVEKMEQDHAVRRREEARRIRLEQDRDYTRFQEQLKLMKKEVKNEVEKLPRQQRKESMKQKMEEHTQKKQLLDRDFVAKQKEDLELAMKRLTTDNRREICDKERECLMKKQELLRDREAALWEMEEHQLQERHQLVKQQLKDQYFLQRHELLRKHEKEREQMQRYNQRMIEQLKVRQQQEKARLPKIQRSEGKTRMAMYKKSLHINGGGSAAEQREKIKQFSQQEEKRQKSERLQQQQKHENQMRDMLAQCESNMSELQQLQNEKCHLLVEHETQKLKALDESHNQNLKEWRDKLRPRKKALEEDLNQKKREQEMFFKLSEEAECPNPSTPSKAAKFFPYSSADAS
Procedure, shortened: as §1

[40] = molecular target: Bmx (Homo sapiens (Human), UniProt P51813)
Procedure, shortened: as §1

| Avg. POC [1] [POC] | Avg. POC [2] [POC] | Avg. POC [3] [POC] | Avg. POC [4] [POC] | Avg. POC [5] [POC] | Avg. POC [6] [POC] | Avg. POC [7] [POC] | Avg. POC [8] [POC] | Avg. POC [9] [POC] | Avg. POC [10] [POC] | Avg. POC [11] [POC] | Avg. POC [12] [POC] | Avg. POC [13] [POC] | Avg. POC [14] [POC] | Avg. POC [15] [POC] | Avg. POC [17] [POC] | Avg. POC [18] [POC] | Avg. POC [19] [POC] | Avg. POC [20] [POC] | Avg. POC [21] [POC] | SMILES | also measured |
| --- | --- | --- | --- | --- | --- | --- | --- | --- | --- | --- | --- | --- | --- | --- | --- | --- | --- | --- | --- | --- | --- |
| 123.5 | 121.5 | 110 | 126 | 172 | 141.5 | 111.5 | 109.5 | 109 | 97 | 116.5 | 119 | 75 | 148 | 125.5 | 123.5 | 111 | 112 | 129 | 108.5 | Cc1c(-c2cnn(C)c2)nn(-c2ccccc2)c1NC(=O)N[C@H]1CCCc2ccccc21 [Example 2, (S)-1-(1′,4-dimethyl-1-phenyl-1H,1′H-3,4′-bipyrazol-5-yl)-3-(1,2,3,4-tetrahydronaphthalen-1-yl)urea] | Avg. POC [16]: 100.5 POC; Avg. POC [22]: 120 POC; Avg. POC [23]: 115 POC; Avg. POC [24]: 128 POC; Avg. POC [25]: 117.5 POC; Avg. POC [26]: 110.5 POC; Avg. POC [27]: 107.5 POC; Avg. POC [28]: 106 POC; Avg. POC [29]: 99 POC; Avg. POC [30]: 108 POC; Avg. POC [31]: 100 POC; Avg. POC [32]: 108 POC; Avg. POC [33]: 103.5 POC; Avg. POC [34]: 110.5 POC; Avg. POC [35]: 104 POC; Avg. POC [36]: 106.5 POC; Avg. POC [37]: 100.5 POC; Avg. POC [38]: 137.5 POC; Avg. POC [39]: 109.5 POC; Avg. POC [40]: 113 POC |
| 92.5 | 133.5 | 121 | 109.5 | 124.5 | 119.5 | 114.5 | 99.5 | 105.5 | 91.5 | 96.5 | 118.5 | 103.5 | 118.5 | 121 | 119.5 | 115.5 | 127 | 113 | 84.5 | Cc1c(-c2cnn(C)c2)nn(-c2ccccc2)c1NC(=O)NC1CCOc2cc(F)ccc21 (stereo not drawn) [Example 12, 1-(1′,4-dimethyl-1-phenyl-1H,1′H-[3,4′-bipyrazol]-5-yl)-3-(7-fluorochroman-4-yl)urea] | Avg. POC [16]: 101 POC; Avg. POC [22]: 131.5 POC; Avg. POC [23]: 111 POC; Avg. POC [24]: 112 POC; Avg. POC [25]: 114.5 POC; Avg. POC [26]: 115 POC; Avg. POC [27]: 104 POC; Avg. POC [28]: 97 POC; Avg. POC [29]: 99 POC; Avg. POC [30]: 99 POC; Avg. POC [31]: 98 POC; Avg. POC [32]: 100 POC; Avg. POC [33]: 98.5 POC; Avg. POC [34]: 106.5 POC; Avg. POC [35]: 91.5 POC; Avg. POC [36]: 106 POC; Avg. POC [37]: 117.5 POC; Avg. POC [38]: 122.5 POC; Avg. POC [39]: 116 POC; Avg. POC [40]: 115.5 POC |
| 115.5 | 121.5 | 111 | 124.5 | 116 | 112.5 | 110 | 100.5 | 102.5 | 103 | 97.5 | 106.5 | 105.5 | 120.5 | 123.5 | 115.5 | 100.5 | 107.5 | 102 | 113.5 | Cc1c(-c2ccc(=O)n(C)c2)nn(-c2ccccc2)c1NC(=O)NC1CN(CC(F)(F)F)Cc2ccccc21 (stereo not drawn) [Example 26, 1-(4-methyl-3-(1-methyl-6-oxo-1,6-dihydropyridin-3-yl)-1-phenyl-1H-pyrazol-5-yl)-3-(2-(2,2,2-trifluoroethyl)-1,2,3,4-tetrahydroisoquinolin-4-yl)urea] | Avg. POC [22]: 108.5 POC; Avg. POC [23]: 118 POC; Avg. POC [24]: 108.5 POC; Avg. POC [25]: 122 POC; Avg. POC [26]: 113.5 POC; Avg. POC [27]: 109 POC; Avg. POC [28]: 108.5 POC; Avg. POC [29]: 102 POC; Avg. POC [30]: 98 POC; Avg. POC [31]: 97 POC; Avg. POC [32]: 106 POC; Avg. POC [33]: 99.5 POC; Avg. POC [34]: 111 POC; Avg. POC [35]: 100.5 POC; Avg. POC [36]: 107 POC; Avg. POC [37]: 123 POC; Avg. POC [38]: 120 POC; Avg. POC [39]: 109 POC; Avg. POC [40]: 109.5 POC |
| 111 | 97 | 104 | 84.5 | 110.5 | 102 | 103 | 118.5 | 107.5 | 99.5 | 106 | 104.5 | 104.5 | 116.5 | 123 | 112.5 | 125.5 | 99.5 | 118 | 108 | COCc1ccc2c(c1)C(NC(=O)Nc1c(C)c(-c3cnn(C)c3)nn1-c1ccccc1)COC2 (stereo not drawn) [Example 32, 1-(1′,4-dimethyl-1-phenyl-1H,1′H-[3,4′-bipyrazol]-5-yl)-3-(6-(methoxymethyl)isochroman-4-yl)urea] | Avg. POC [16]: 107.5 POC; Avg. POC [22]: 130.5 POC; Avg. POC [23]: 116.5 POC; Avg. POC [24]: 105 POC; Avg. POC [25]: 124 POC; Avg. POC [26]: 98.5 POC; Avg. POC [27]: 106 POC; Avg. POC [28]: 99.5 POC; Avg. POC [29]: 103 POC; Avg. POC [30]: 99.5 POC; Avg. POC [31]: 92 POC; Avg. POC [32]: 109 POC; Avg. POC [33]: 104.5 POC; Avg. POC [34]: 115 POC; Avg. POC [35]: 108 POC; Avg. POC [36]: 102.5 POC; Avg. POC [37]: 132 POC; Avg. POC [38]: 117.5 POC; Avg. POC [39]: 103.5 POC; Avg. POC [40]: 106.5 POC |
